Results taken from PubChem BioAssay (NCI).
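The compound was tested at five concentrations on cells cultured in 96-well plates, with a 48-hour exposure period. Here, GI50 denotes the concentration required for 50% inhibition of growth. Definition used: TGI = concentration required for complete inhibition of growth.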

Tests used:
Experiment in all cases: DTP human tumour cell line panel, 48 h
K-562 leukemia = tested on: K-562 leukemia
SN12C renal = tested on: SN12C renal
ACHN renal = tested on: ACHN renal
MDA-MB-435 = tested on: MDA-MB-435
MOLT-4 leukemia = tested on: MOLT-4 leukemia
UACC-62 melanoma = tested on: UACC-62 melanoma
MDA-MB-231 breast = tested on: MDA-MB-231 breast
SK-MEL-2 melanoma = tested on: SK-MEL-2 melanoma
BT-549 breast = tested on: BT-549 breast
HOP-62 NSCLC = tested on: HOP-62 NSCLC

| Structure (SMILES) | GI50 (K-562 leukemia) | TGI (K-562 leukemia) | GI50 (SN12C renal) | TGI (SN12C renal) | GI50 (ACHN renal) | TGI (ACHN renal) | GI50 (MDA-MB-435) | TGI (MDA-MB-435) | GI50 (MOLT-4 leukemia) | TGI (MOLT-4 leukemia) | GI50 (UACC-62 melanoma) | TGI (UACC-62 melanoma) | GI50 (MDA-MB-231 breast) | TGI (MDA-MB-231 breast) | GI50 (SK-MEL-2 melanoma) | TGI (SK-MEL-2 melanoma) | GI50 (BT-549 breast) | TGI (BT-549 breast) | GI50 (HOP-62 NSCLC) | TGI (HOP-62 NSCLC) |
| --- | --- | --- | --- | --- | --- | --- | --- | --- | --- | --- | --- | --- | --- | --- | --- | --- | --- | --- | --- | --- |
| CC[C@H](C)[C@H](NC(=O)NC(C)(C)C)C(=O)N(C)[C@H](C[C@@H](OC(C)=O)c1nc(C(=O)N[C@@H](Cc2ccccc2)C[C@H](C)C(=O)OC)cs1)C(C)C | 0.461 µM | > 25 µM | 1.07 µM | > 25 µM | 1.15 µM | > 25 µM | 0.0884 µM | 0.486 µM | 0.853 µM | > 25 µM | 0.172 µM | > 25 µM | 0.726 µM | 2.98 µM | 0.405 µM | > 25 µM | 0.241 µM | 1.52 µM | 0.846 µM | > 25 µM |
| C=C(C)[C@@H]1CC[C@]2(C(=O)O)CC[C@]3(C)[C@H](CC[C@@H]4[C@@]5(C)C/C(=C/c6cccc(I)c6)C(=O)C(C)(C)[C@@H]5CC[C@]43C)[C@@H]12 | 2.37 µM | 49.5 µM | 2.93 µM | 11.7 µM | 2.62 µM | 11 µM | 2.98 µM | 9.74 µM | 2.85 µM | 9.45 µM | 1.82 µM | 4.16 µM | 2.83 µM | 10 µM | 2.4 µM | 6.94 µM | 2.2 µM | 6.75 µM | 3.24 µM | 12.6 µM |
| O=C(c1nn(-c2ccc(Cl)cc2)cc1O)n1nc(C(F)(F)F)cc1-c1ccccc1 | 1.72 µM | > 100 µM | 3.57 µM | > 100 µM | 2.08 µM | > 100 µM | 3.38 µM | > 100 µM | 2.55 µM | > 100 µM | 2.12 µM | > 71.1 µM | > 26.3 µM | > 100 µM | 38.2 µM | > 100 µM | 1.12 µM | > 100 µM | 1.84 µM | > 76.9 µM |
| Nc1nc(-c2ccc(Cl)cc2)cc(-c2ccc(Cl)cc2)c1-c1nc2ccccc2o1 | 13.7 µM | 52.3 µM | 12.4 µM | 26.1 µM | 17.4 µM | 33.2 µM | 18.3 µM | 36.1 µM | 12.1 µM | 27.4 µM | 18.9 µM | 34.2 µM | 15.8 µM | 31.3 µM | 16.6 µM | 33.4 µM | 18.1 µM | 33.4 µM | 13 µM | 27.1 µM |
| CN(C)CC1CCCCCC(Br)C1=O (stereo unspecified) | – | > 100 µM | – | 32.2 µM | – | 19.6 µM | – | 34.1 µM | – | 2.83 µM | – | 44 µM | – | 30.9 µM | – | 54.4 µM | – | 26.4 µM | – | 47.3 µM |
| CC(C)=CC(=O)N[C@@H]1CC2CCC3C(CC[C@@]4(C)C3CC[C@@H]4C(C)N(C)C)[C@@]2(C)C[C@@H]1O (stereo partly specified) | 0.849 µM | 8.49 µM | 9.11 µM | > 44.5 µM | 6.36 µM | 32.6 µM | 2.9 µM | 10.1 µM | 2.5 µM | 14 µM | 2.24 µM | 5.28 µM | 5.77 µM | 19.8 µM | 14.4 µM | 38.2 µM | 7.57 µM | 29.3 µM | 4.3 µM | 9.85 µM |
| O=C(Oc1ccccc1Cl)c1ccccc1Nc1cccc(C(F)(F)F)c1 | 2.67 µM | 8.43 µM | 23.4 µM | > 100 µM | 40.3 µM | > 100 µM | 11.7 µM | 32.3 µM | 3.89 µM | 14.6 µM | 16.9 µM | 42.9 µM | 20.2 µM | 48.3 µM | 20.9 µM | > 100 µM | 18.3 µM | 52.6 µM | 24.6 µM | 70.5 µM |
| CCSc1ccc([C@@H]2[C@@H](N)C(=O)N2c2cc(OC)c(OC)c(OC)c2)cc1 | 0.0359 µM | > 100 µM | 0.524 µM | > 100 µM | 0.071 µM | > 100 µM | 0.0277 µM | 0.102 µM | 0.0528 µM | > 100 µM | 0.0451 µM | > 100 µM | 0.376 µM | > 100 µM | 0.047 µM | > 100 µM | 0.0592 µM | > 100 µM | 0.06 µM | > 100 µM |
| O=C1CC(c2ccsc2)c2snc(-c3ccc(Cl)cc3)c2N1 (stereo unspecified) | 0.356 µM | > 100 µM | 3.77 µM | > 100 µM | 5.39 µM | > 100 µM | 0.26 µM | 0.977 µM | – | – | 0.859 µM | > 100 µM | 1.33 µM | > 100 µM | 3.93 µM | > 100 µM | 2.26 µM | > 100 µM | 2.63 µM | 35.2 µM |
| Oc1ccc(Oc2cnc3cc(Cl)ccc3n2)cc1 | 37.7 µM | > 100 µM | 34.2 µM | > 100 µM | 36.3 µM | > 100 µM | 23.8 µM | 97.3 µM | 14.6 µM | > 100 µM | 40.9 µM | > 100 µM | 24.5 µM | > 100 µM | – | – | 20.9 µM | > 100 µM | > 100 µM | > 100 µM |
| O=C(Cc1ccc(Nc2ccnc(C(F)(F)F)c2)cc1)Nc1cc(Cl)ccc1O | 2.96 µM | 12 µM | 9.09 µM | 38.5 µM | 4.44 µM | 44.2 µM | 4.33 µM | 17.5 µM | 1.73 µM | 5.39 µM | 2.75 µM | 13.9 µM | 4.92 µM | 24.2 µM | – | – | 4.07 µM | 22.5 µM | 12.5 µM | 32.5 µM |
| Fc1ccc([C@@H]2CCNC[C@H]2COc2ccc3c(c2)OCO3)cc1 | 2.32 µM | 6.24 µM | 5.79 µM | 18.9 µM | 10.8 µM | 24 µM | 2.31 µM | 7.96 µM | – | – | 5.52 µM | 18.8 µM | 3.07 µM | 15 µM | 5.72 µM | 18.5 µM | 12.2 µM | 26.1 µM | 13.3 µM | 27.4 µM |
| CN(C)c1ccc2cc3ccc(N(C)C)cc3nc2c1 | – | 21.6 µM | – | 7.28 µM | – | 3.67 µM | – | 13 µM | – | – | – | 28.2 µM | – | 2.89 µM | – | 21.9 µM | – | 22.1 µM | – | 7.18 µM |
